In EP2881399B1, “New thiosemicarbazone chelates having anticancer activity” (priority 2013, dated 2015):

What was measured:
Type in all cases: cell-based
K562 = assay: DNA fragmentation by diphenylamine reaction; conditions: K562, end of 72 hours at identified IC50 concentrations
Protocol: (§1) IC50 (the concentration inhibiting the proliferation of 50% of cells) of these 4 new compounds presented is identified by cytotoxicity tests in K562 (leukaemia) and ECV304 (endothelial) cells. Subsequently, it is studied to understand pathway through which the death of the cells is occurred (the mechanism of action) after the cells are treated for 72 hours at these concentrations. The apoptosis is analysed with immununocytochemical methods and flow cytometry and DNA fragmentation is analysed with diphenylamine reaction. […] The inventors also analysed DNA fragmentation rates occurred in cells at the end of 72 hours at identified IC50 concentrations.

ECV304 = assay: DNA fragmentation by diphenylamine reaction; conditions: ECV304, end of 72 hours at identified IC50 concentrations
Protocol: as §1

[1] = test system: ECV304 (endothelial) cells; assay: cytotoxicity test (MTT), IC50 after 72 hours incubation; conditions: incubated for 72 hours
Protocol: (§2) IC50 (the concentration inhibiting the proliferation of 50% of cells) of these 4 new compounds presented is identified by cytotoxicity tests in K562 (leukaemia) and ECV304 (endothelial) cells. Subsequently, it is studied to understand pathway through which the death of the cells is occurred (the mechanism of action) after the cells are treated for 72 hours at these concentrations. The apoptosis is analysed with immununocytochemical methods and flow cytometry and DNA fragmentation is analysed with diphenylamine reaction. […] DNA fragmentation is found high in all experiment groups (70-80%). These rates are compatible with IC50 obtained with MTT test because IC50 is the dose which kills the 50% of the cells. […] Furthermore, this rate is compatible with the percentage of total dead cells (52-64 %) which is the addition of apoptotic and necrotic cells obtained by annexin/PI dyeing.

K562 (leukaemia) cells = assay: as above
Protocol: as §2

K562 cells = assay: flow cytometry with Annexin V and PI dyeing (apoptosis / necrosis); conditions: K562, 72 hours at IC50 concentration; for Living cell (%) / Necrotic cell (%) / Post- apoptotic cell (%) / Pre- apoptotic cell (%): Annexin V and PI; for Dead cell (%): addition of apoptotic and necrotic cells
Protocol: The Figure 2 gives the flow cytometry images of K562 cells, undergoing pre-apoptosis, post-apoptosis and necrosis, which are dyed with Annexin V and PI, after being incubated with thiosemicarbazones of the invention for 72 hours. Herein the images are as follows; A) Control, B) Compound I (0.6µg/ml), C) Compound II (0.6µg/ml), D) […], and E) Compound IV (0.1µg/ml). […] The inventors have characterized cells treated with compounds I-IV in the conditions of Figure 2 in order to better observe the mechanism of action of thiosemicarbazones presented in the current invention.

[2] = K562, as listed in Table 3, rounded, the concentration applied in the flow cytometry
[3] = K562 cells, incubated for 72 hours

| Compound | DNA fragmentation % (K562) [%] | DNA fragmentation % (ECV304) [%] | IC50 [1] [microgram/ml] | IC50 (K562 (leukaemia) cells; [2]) [µg/mL] | IC50 (K562 (leukaemia) cells; [3]) [microgram/ml] | Apoptosis / Necrosis ratio (K562 cells) | Living cell (%) (K562 cells) | Necrotic cell (%) (K562 cells) | Post- apoptotic cell (%) (K562 cells) | Pre- apoptotic cell (%) (K562 cells) | Dead cell (%) (K562 cells) |
| --- | --- | --- | --- | --- | --- | --- | --- | --- | --- | --- | --- |
| COc1ccc2c(c1)[O][Fe]([Cl])[O]c1cc(O)ccc1C=NN=C(SC)N=C2 [Compound IV, Monochloro-N(1)-4-hydroxysalicylidene-N(4)-4-methoxy-salicylideneisothiosemicarbazidato Iron (III)] | 84±1.4 | 28±2.4 | >5 | 0.1 | 0.1 | 17.77 | 41.07 | 2.11 | 19.32 | 37.5 | 58.93 |
| COc1ccc2c(c1)[O][Ni][O]c1c(O)cccc1C=NN=C(SC)N=C2 [Compound I, N(1)-3-hydroxysalicylidene-N(4)-4-methoxysalicylideneisothio-semicarbazidato Nickel (II)] | 80±1.4 | 20±0.5 | >5 | 0.6 | 0.61 | 13.56 | 35.18 | 2.57 | 27.39 | 34.85 | 64.82 |
| Monochloro-N(1)-3--hydroxysalicylidene-N(4)-4-methox salicylideneisothiosemicarbazidato Iron (III) [Compound II] | 79±0.7 | 18±2.1 | >5 | 0.6 | 0.62 | 9.80 | 47.4 | 3.15 | 18.54 | 30.9 | 52.6 |
| COc1ccc2c(c1)[O][Ni][O]c1cc(O)ccc1C=NN=C(SC)N=C2 [III, N(1)-4-hydroxysalicylidene-N(4)-4-methoxysalicylideneisothio-semicarbazidato Nickel (II)] | 75±1.4 | 22±1.7 | >5 | 0.6 | 0.65 | 11.82 | 36.11 | 3.17 | 23.23 | 37.5 | 63.89 |
